Source: US8916499B2, “Herbicidal compositions comprising 4-amino-3-chloro-5-fluoro-6-(4-chloro-2-fluoro-3-methoxyphenyl) pyridine-2-carboxylic acid or a derivative thereof and a protoporphyrinogen oxidase inhibitor” (Dow AgroSciences LLC, priority 2012, dated 2014)

Legend:
IPOHE = test: Postemergence foliar-applied weed control, direct seeded rice, greenhouse (Example I); format: in vivo, Ipomoea hederacea Jacq.
ECHOR = test: In-water applied weed control, transplanted paddy rice, greenhouse (Example II); format: in vivo, Echinochloa oryzoides (Ard.) Fritsch
CYPIR = test: Postemergence foliar-applied weed control, direct seeded rice, greenhouse (Example I); format: in vivo, Cyperus iria L.
PAPRH = test: Postemergence foliar herbicidal activity of mixtures in cereal crops, greenhouse (Example III); format: in vivo, Papaver rhoeas L.; conditions: foliar-applied
Method: Seeds of the desired test plant species were planted in Sun Gro MetroMix® 306 planting mixture, which typically has a pH of 6.0 to 6.8 and an organic matter content of about 30 percent, in plastic pots with a surface area of 103.2 square centimeters (cm^2). When required to ensure good germination and healthy plants, a fungicide treatment and/or other chemical or physical treatment was applied. The plants were grown for 7-36 days in a greenhouse with an approximate 14 hour photoperiod which was maintained at about 18° C. during the day and about 17° C. during the night. Nutrients and water were added on a regular basis and supplemental lighting was provided with overhead metal halide 1000-Watt lamps as necessary. The plants were employed for testing when they reached the second or third true leaf stage.
Treatments consisted of the benzyl ester of 4-amino-3-chloro-5-fluoro-6-(4-chloro-2-fluoro-3-methoxy-phenyl)pyridine-2-carboxylic acid (Compound A), formulated as an SC, a second cereal herbicide alone and then both in combination.
Other herbicidal components were applied on an active ingredient basis and included PSII-inhibiting herbicides.
Measured aliquots of benzyl ester of 4-amino-3-chloro-5-fluoro-6-(4-chloro-2-fluoro-3-methoxy-phenyl)pyridine-2-carboxylic acid (Compound A) were placed in 25 milliliter (mL) glass vials and diluted in a volume of 1.25% (v/v) Agri-Dex® crop oil concentrate to obtain stock solutions. Compound requirements are based upon a 12 mL application volume at a rate of 187 liters per hectare (L/ha). Spray solutions of the second cereal herbicide and experimental compound mixtures were prepared by adding the stock solutions to the appropriate amount of dilution solution to form 12 mL spray solution with active ingredients in two- and three-way combinations. Formulated compounds were applied to the plant material with an overhead Mandel track sprayer equipped with an 8002E nozzle calibrated to deliver 187 L/ha over an application area of 0.503 square meters (m^2) at a spray height of 18 inches (46 cm) above average plant canopy. Control plants were sprayed in the same manner with the solvent blank.
The treated plants and control plants were placed in a greenhouse as described above and watered by sub-irrigation to prevent wash-off of the test compounds. After 20-22 days, the condition of the test plants as compared with that of the control plants was determined visually and scored on a scale of 0 to 100 percent where 0 corresponds to no injury and 100 corresponds to complete kill.
Colby's equation was used to determine the herbicidal effects expected from the mixtures (Colby, S. R. 1967. Calculation of the synergistic and antagonistic response of herbicide combinations. Weeds 15:20-22.).
The following equation was used to calculate the expected activity of mixtures containing two active ingredients, A and B: Expected=A+B−(A×B/100)

SCPMA = test: In-water applied weed control, transplanted paddy rice, greenhouse (Example II); format: in vivo; conditions: Bifenox (Fox ®) 180 g ai/ha alone
LEFCH [1] = test: Postemergence foliar-applied weed control, direct seeded rice, greenhouse (Example I); format: in vivo, Leptochloa chinensis (L.) Nees; conditions: g ae/ha Compound A Acid+g ai/ha carfentrazone-ethyl: r39 19.4+0, r40 0+28, r41 19.4+28
BRAPP = test: as above; format: in vivo, Brachiaria platyphylla (Griseb.) Nash; conditions: g ae/ha Compound A Acid+g ai/ha pyraclonil: r11 4.38+0, r12 0+33.75, r13 0+67.5, r14 0+135, r15 4.38+33.75, r16 4.38+67.5, r17 4.38+135
SCPJU = test: In-water applied weed control, transplanted paddy rice, greenhouse (Example II); format: in vivo, Schoenoplectus juncoides (Roxb.) Palla
ECHCG = test: as above; format: in vivo, Echinochloa crus-galli (L.) P. Beauv.
LEFCH [2] = test: as above; format: in vivo, Leptochloa chinensis (L.) Nees
ECHCO = test: Postemergence foliar-applied weed control, direct seeded rice, greenhouse (Example I); format: in vivo, Echinochloa colona (L.) Link; conditions: g ae/ha Compound A Acid+g ai/ha saflufenacil: r24 4.38+0, r25 0+5, r26 0+10, r27 0+20, r28 4.38+5, r29 4.38+10, r30 4.38+20
CYPRO = test: In-water applied weed control, transplanted paddy rice, greenhouse (Example II); format: in vivo, Cyperus rotundus L.
FIMMI = test: as above; format: in vivo, Fimbristylis miliacea (L.) Vahl; conditions: 8.75 g ae/ha alone

For COC(=O)c1cc(Oc2ccc(Cl)cc2Cl)ccc1[N+](=O)[O-] [Bifenox, methyl 5-(2,4-dichlorophenoxy)-2-nitrobenzoate], the “Visual Weed Control (%) - 21 DAA IPOHE Obs” value (IPOHE; g ae/ha Compound A Benzyl Ester+g ai/ha bifenox (Fox ®): r11 16+0, r12 32+0, r13 0+180, r14 16+180, r15 32+180) was 55%, the “Visual Weed Control (%) - 21 DAA ECHOR Obs” value (ECHOR; Bifenox (technical) 720 g ai/ha alone) was 40% and the “Visual Weed Control (%) - 21 DAA CYPIR Obs” value (CYPIR; g ae/ha Compound A Benzyl Ester+g ai/ha bifenox (Fox ®): r17 8+0, r18 0+180, r19 0+360, r20 0+720, r21 8+180, r22 8+360, r23 8+720) was 0%. The “Visual Weed Control (%) - 22 DAA CYPIR Obs” value (CYPIR; g ae/ha Compound A Benzyl Ester+g ai/ha bifenox (technical): r23 8+0, r24 16+0, r25 0+180, r26 0+720, r27 8+180, r28 16+180, r29 8+720, r30 16+720) was 0%, the “Visual Weed Control (%) - 21 DAA PAPRH Obs” value (PAPRH; 180 g ai/ha alone) was 5% and the “Visual Weed Control (%) - 21 DAA PAPRH Obs” value (PAPRH; 360 g ai/ha alone) was 8%. The “Visual Weed Control (%) - 21 DAA PAPRH Obs” value (PAPRH; 780 g ai/ha alone) was 8% and the “Visual Weed Control (%) - 21 DAA SCPMA Obs” value (SCPMA) was 40%.
In the case of COc1c(Cl)ccc(-c2nc(C(=O)O)c(Cl)c(N)c2F)c1F [Compound A Acid, 4-amino-3-chloro-5-fluoro-6-(4-chloro-2-fluoro-3-methoxy-phenyl)pyridine-2-carboxylic acid], the “Visual Weed Control (%) - 19 DAA LEFCH Obs” value (LEFCH [1]) is reported as 5%, the “Visual Weed Control (%) - 20 DAA IPOHE Obs” value (IPOHE; first section, g ae/ha Compound A Acid+g ai/ha oxadiazon: r12 8.75+0, r13 0+31.25, r14 0+62.5, r15 0+125, r16 8.75+31.25, r17 8.75+62.5, r18 8.75+125) is reported as 10% and the “Visual Weed Control (%) - 21 DAA IPOHE Obs” value (IPOHE; g ae/ha Compound A Acid+g ai/ha pyraclonil: r53 35+0, r54 0+270, r55 35+270) is reported as 45%. For the same compound, the “Visual Weed Control (%) - 20 DAA BRAPP Obs” value (BRAPP) was 10%, the “Visual Weed Control (%) - 19 DAA ECHOR Obs” value (ECHOR; g ae/ha Compound A Acid+g ai/ha carfentrazone-ethyl: r28 42.4+0, r29 0+215, r30 42.4+215) was 15% and the “Visual Weed Control (%) - 21 DAA SCPJU Obs” value (SCPJU; 8.75 g ae/ha alone) was 40%. For the same compound, the “Visual Weed Control (%) - 21 DAA SCPJU Obs” value (SCPJU; 17.5 g ae/ha alone) was 60%, the “Visual Weed Control (%) - 21 DAA SCPJU Obs” value (SCPJU; 35 g ae/ha alone) was 95% and the “Visual Weed Control (%) - 21 DAA ECHCG Obs” value (ECHCG; 8.75 g ae/ha alone) was 15%. For the same compound, the “Visual Weed Control (%) - 20 DAA ECHCG Obs” value (ECHCG; 17.5 g ae/ha alone) was 50%, the “Visual Weed Control (%) - 21 DAA ECHCG Obs” value (ECHCG; 17.5 g ae/ha alone) was 20% and the “Visual Weed Control (%) - 20 DAA ECHCG Obs” value (ECHCG; 35 g ae/ha alone) was 95%. The “Visual Weed Control (%) - 21 DAA ECHCG Obs” value (ECHCG; 35 g ae/ha alone) was 95%, the “Visual Weed Control (%) - 20 DAA CYPIR Obs” value (CYPIR; g ae/ha Compound A Acid+g ai/ha saflufenacil: r24 4.38+0, r25 0+5, r26 0+10, r27 0+20, r28 4.38+5, r29 4.38+10, r30 4.38+20) was 30% and the “Visual Weed Control (%) - 20 DAA LEFCH Obs” value (LEFCH [2]; 17.5 g ae/ha alone) was 0%. For the same compound, the “Visual Weed Control (%) - 20 DAA LEFCH Obs” value (LEFCH [2]; 35 g ae/ha alone) was 30%, the “Visual Weed Control (%) - 21 DAA LEFCH Obs” value (LEFCH [2]; 35 g ae/ha alone) was 5% and the “Visual Weed Control (%) - 21 DAA LEFCH Obs” value (LEFCH [2]; 70 g ae/ha alone) was 23%. For the same compound, the “Visual Weed Control (%) - 20 DAA ECHCO Obs” value (ECHCO) was 40%, the “Visual Weed Control (%) - 20 DAA CYPRO Obs” value (CYPRO; 8.75 g ae/ha alone) was 0% and the “Visual Weed Control (%) - 20 DAA CYPRO Obs” value (CYPRO; 17.5 g ae/ha alone) was 20%. The “Visual Weed Control (%) - 20 DAA CYPRO Obs” value (CYPRO; 35 g ae/ha alone) was 80%, the “Visual Weed Control (%) - 21 DAA CYPRO Obs” value (CYPRO; 35 g ae/ha alone) was 70% and the “Visual Weed Control (%) - 21 DAA FIMMI Obs” value (FIMMI) was 0%.
